From PubChem BioAssay AID1259407 (Chemical Carcinogenesis Research Information System (CCRIS), 2018) come the findings set out here.

In this data set the test system is CCRIS mutagenicity, Ames/micronucleus/aberration tests. Put plainly: CCRIS mutagenicity studies.
Where [1] appears, read: Test System: AMES SALMONELLA TYPHIMURIUM, Strain/Indicator: TA97, Metabolic Activation: NONE, Method: PREINCUBATION
Where [2] appears, read: Test System: AMES SALMONELLA TYPHIMURIUM, Strain/Indicator: TA97, Metabolic Activation: RAT, LIVER, S-9, AROCLOR 1254 (10 OR 30%), Method: PREINCUBATION
Setting [3] is: Test System: AMES SALMONELLA TYPHIMURIUM, Strain/Indicator: TA98, Metabolic Activation: NONE, Method: PREINCUBATION
[4] abbreviates: Test System: AMES SALMONELLA TYPHIMURIUM, Strain/Indicator: TA98, Metabolic Activation: RAT, LIVER, S-9, AROCLOR 1254 (10 OR 30%), Method: PREINCUBATION
The mark [5] stands for this setting: Test System: AMES SALMONELLA TYPHIMURIUM, Strain/Indicator: TA100, Metabolic Activation: NONE, Method: PREINCUBATION
[6] abbreviates: Test System: AMES SALMONELLA TYPHIMURIUM, Strain/Indicator: TA100, Metabolic Activation: RAT, LIVER, S-9, AROCLOR 1254 (10 OR 30%), Method: PREINCUBATION
[7] abbreviates: Test System: AMES SALMONELLA TYPHIMURIUM, Strain/Indicator: TA1535, Metabolic Activation: NONE, Method: PREINCUBATION
The mark [8] stands for this setting: Test System: AMES SALMONELLA TYPHIMURIUM, Strain/Indicator: TA1535, Metabolic Activation: RAT, LIVER, S-9, AROCLOR 1254 (10 OR 30%), Method: PREINCUBATION
[9] abbreviates: Test System: AMES SALMONELLA TYPHIMURIUM, Strain/Indicator: TA100, Metabolic Activation: RAT, LIVER, S-9, PCB, Method: PREINCUBATION

Active and inactive are the calls of the source. How the calls were made is not given here.

Regarding `CCOC(C)=O`, the mutagenic call is “inactive; negative” (End Point: IN VITRO CHROMOSOMAL ABERRATIONS, Test System: CHO-LB CELLS, Metabolic Activation: NONE); “inactive; negative” (End Point: IN VITRO CHROMOSOMAL ABERRATIONS, Test System: CHO-LB CELLS, Metabolic Activation: RAT, LIVER, S-9, AROCLOR 1254); “inactive; negative” (End Point: IN VIVO MICRONUCLEUS, Test System: BONE MARROW POLYCHROMATIC ERYTHROCYTES, Species: MOUSE, Strain/Sex: DDY/MALE, Route: IP); “inactive; negative” (Test System: AMES SALMONELLA TYPHIMURIUM, Strain/Indicator: TA97, Metabolic Activation: HAMSTER, LIVER, S-9, AROCLOR 1254 (10 OR 30%), Method: PREINCUBATION); “inactive; negative” under setting [1]; “inactive; negative” under setting [2]. Also, the mutagenic call reads like this: (Test System: AMES SALMONELLA TYPHIMURIUM, Strain/Indicator: TA98, Metabolic Activation: HAMSTER, LIVER, S-9, AROCLOR 1254 (10 OR 30%), Method: PREINCUBATION) “inactive; negative”; under setting [3], “inactive; negative”; under setting [4], “inactive; negative”; (Test System: AMES SALMONELLA TYPHIMURIUM, Strain/Indicator: TA98, Metabolic Activation: RAT, LIVER, S-9, PHENOBARBITAL AND BETA-NAPHTHOFLAVONE, Method: PREINCUBATION) “inactive; negative”; (Test System: AMES SALMONELLA TYPHIMURIUM, Strain/Indicator: TA100, Metabolic Activation: HAMSTER, LIVER, S-9, AROCLOR 1254 (10 OR 30%), Method: PREINCUBATION) “inactive; negative”; under setting [5], “inactive; negative”. Also, the mutagenic call by setting is: under setting [6], “inactive; negative”; (Test System: AMES SALMONELLA TYPHIMURIUM, Strain/Indicator: TA100, Metabolic Activation: RAT, LIVER, S-9, PHENOBARBITAL AND BETA-NAPHTHOFLAVONE, Method: PREINCUBATION) “inactive; negative”; (Test System: AMES SALMONELLA TYPHIMURIUM, Strain/Indicator: TA102, Metabolic Activation: NONE, Method: PREINCUBATION) “inactive; negative”; (Test System: AMES SALMONELLA TYPHIMURIUM, Strain/Indicator: TA102, Metabolic Activation: RAT, LIVER, S-9, PHENOBARBITAL AND BETA-NAPHTHOFLAVONE, Method: PREINCUBATION) “inactive; negative”; (Test System: AMES SALMONELLA TYPHIMURIUM, Strain/Indicator: TA104, Metabolic Activation: NONE, Method: PREINCUBATION) “inactive; negative”; (Test System: AMES SALMONELLA TYPHIMURIUM, Strain/Indicator: TA104, Metabolic Activation: RAT, LIVER, S-9, PHENOBARBITAL AND BETA-NAPHTHOFLAVONE, Method: PREINCUBATION) “inactive; negative”. Also, the mutagenic call (Test System: AMES SALMONELLA TYPHIMURIUM, Strain/Indicator: TA1535, Metabolic Activation: HAMSTER, LIVER, S-9, AROCLOR 1254 (10 OR 30%), Method: PREINCUBATION) is “inactive; negative”; the mutagenic call under setting [7] is “inactive; negative”; the mutagenic call under setting [8] is “inactive; negative”; the mutagenic call (Test System: AMES SALMONELLA TYPHIMURIUM, Strain/Indicator: TA1535, Metabolic Activation: RAT, LIVER, S-9, PHENOBARBITAL AND BETA-NAPHTHOFLAVONE, Method: PREINCUBATION) was “inactive; negative”; the mutagenic call (Test System: AMES SALMONELLA TYPHIMURIUM, Strain/Indicator: TA1537, Metabolic Activation: HAMSTER, LIVER, S-9, AROCLOR 1254 (30%), Method: PREINCUBATION) was “inactive; negative”; the mutagenic call (Test System: AMES SALMONELLA TYPHIMURIUM, Strain/Indicator: TA1537, Metabolic Activation: NONE, Method: PREINCUBATION) is “inactive; negative”. The mutagenic call reads like this: (Test System: AMES SALMONELLA TYPHIMURIUM, Strain/Indicator: TA1537, Metabolic Activation: RAT, LIVER, S-9, AROCLOR 1254 (30%), Method: PREINCUBATION) “inactive; negative”; (Test System: AMES SALMONELLA TYPHIMURIUM, Strain/Indicator: TA1537, Metabolic Activation: RAT, LIVER, S-9, PHENOBARBITAL AND BETA-NAPHTHOFLAVONE, Method: PREINCUBATION) “inactive; negative”; (Test System: E. COLI, Strain/Indicator: WP2UVRA/PKM101, Metabolic Activation: NONE, Method: PREINCUBATION) “inactive; negative”; (Test System: E. COLI, Strain/Indicator: WP2UVRA/PKM101, Metabolic Activation: RAT, LIVER, S-9, PHENOBARBITAL AND BETA-NAPHTHOFLAVONE, Method: PREINCUBATION) “inactive; negative”; (Test System: E. COLI, Strain/Indicator: WP2UVRA, Metabolic Activation: NONE, Method: PREINCUBATION) “inactive; negative”; (Test System: E. COLI, Strain/Indicator: WP2UVRA, Metabolic Activation: RAT, LIVER, S-9, PHENOBARBITAL AND BETA-NAPHTHOFLAVONE, Method: PREINCUBATION) “inactive; negative”.

On to `C[Si](C)(C)CN=[N+]=[N-]`, for which the mutagenic call reads like this: under setting [5], “inactive; negative”; under setting [9], “active; positive”.

Consider `Cc1ccc(S(=O)(=O)OC[C@H]2CO2)cc1`, for which the mutagenic call is “active; positive” under setting [5]; “active; positive” (Test System: AMES SALMONELLA TYPHIMURIUM, Strain/Indicator: TA100, Metabolic Activation: NONE, Method: STANDARD PLATE); “active; positive” under setting [9].

For the molecule `CC(C)(C)OOC(C)(C)C`, the mutagenic call is “inactive; negative” (Test System: AMES SALMONELLA TYPHIMURIUM, Strain/Indicator: TA97, Metabolic Activation: HAMSTER, LIVER, S-9, AROCLOR 1254 (10%), Method: PREINCUBATION); “inactive; negative” (Test System: AMES SALMONELLA TYPHIMURIUM, Strain/Indicator: TA97, Metabolic Activation: HAMSTER, LIVER, S-9, AROCLOR 1254 (30%), Method: PREINCUBATION); “inactive; negative” under setting [1]; “inactive; negative” under setting [2]; “inactive; negative” (Test System: AMES SALMONELLA TYPHIMURIUM, Strain/Indicator: TA98, Metabolic Activation: HAMSTER, LIVER, S-9, AROCLOR 1254 (10%), Method: PREINCUBATION); “inactive; negative” (Test System: AMES SALMONELLA TYPHIMURIUM, Strain/Indicator: TA98, Metabolic Activation: HAMSTER, LIVER, S-9, AROCLOR 1254 (30%), Method: PREINCUBATION). The mutagenic call under setting [3] was “inactive; negative”; the mutagenic call under setting [4] was “inactive; negative”; the mutagenic call (Test System: AMES SALMONELLA TYPHIMURIUM, Strain/Indicator: TA100, Metabolic Activation: HAMSTER, LIVER, S-9, AROCLOR 1254 (10%), Method: PREINCUBATION) was “inactive; negative”; the mutagenic call (Test System: AMES SALMONELLA TYPHIMURIUM, Strain/Indicator: TA100, Metabolic Activation: HAMSTER, LIVER, S-9, AROCLOR 1254 (30%), Method: PREINCUBATION) was “inactive; negative”; the mutagenic call under setting [5] is “inactive; negative”; the mutagenic call under setting [6] is “inactive; negative”. Also, the mutagenic call by setting is: (Test System: AMES SALMONELLA TYPHIMURIUM, Strain/Indicator: TA1535, Metabolic Activation: HAMSTER, LIVER, S-9, AROCLOR 1254 (10%), Method: PREINCUBATION) “inactive; negative”; (Test System: AMES SALMONELLA TYPHIMURIUM, Strain/Indicator: TA1535, Metabolic Activation: HAMSTER, LIVER, S-9, AROCLOR 1254 (30%), Method: PREINCUBATION) “inactive; negative”; under setting [7], “inactive; negative”; under setting [8], “inactive; negative”.
